Source: patent US6673565B2 (priority 1999, dated 2004)

Key:
Butyrylcholinesterase = Butyrylcholinesterase (Homo sapiens, UniProt P06276); assay type: biochemical
Urease = Urease (Canavalia ensiformis, UniProt P07374); assay type: biochemical
Urease, sequence (P07374 whole entry, looked up): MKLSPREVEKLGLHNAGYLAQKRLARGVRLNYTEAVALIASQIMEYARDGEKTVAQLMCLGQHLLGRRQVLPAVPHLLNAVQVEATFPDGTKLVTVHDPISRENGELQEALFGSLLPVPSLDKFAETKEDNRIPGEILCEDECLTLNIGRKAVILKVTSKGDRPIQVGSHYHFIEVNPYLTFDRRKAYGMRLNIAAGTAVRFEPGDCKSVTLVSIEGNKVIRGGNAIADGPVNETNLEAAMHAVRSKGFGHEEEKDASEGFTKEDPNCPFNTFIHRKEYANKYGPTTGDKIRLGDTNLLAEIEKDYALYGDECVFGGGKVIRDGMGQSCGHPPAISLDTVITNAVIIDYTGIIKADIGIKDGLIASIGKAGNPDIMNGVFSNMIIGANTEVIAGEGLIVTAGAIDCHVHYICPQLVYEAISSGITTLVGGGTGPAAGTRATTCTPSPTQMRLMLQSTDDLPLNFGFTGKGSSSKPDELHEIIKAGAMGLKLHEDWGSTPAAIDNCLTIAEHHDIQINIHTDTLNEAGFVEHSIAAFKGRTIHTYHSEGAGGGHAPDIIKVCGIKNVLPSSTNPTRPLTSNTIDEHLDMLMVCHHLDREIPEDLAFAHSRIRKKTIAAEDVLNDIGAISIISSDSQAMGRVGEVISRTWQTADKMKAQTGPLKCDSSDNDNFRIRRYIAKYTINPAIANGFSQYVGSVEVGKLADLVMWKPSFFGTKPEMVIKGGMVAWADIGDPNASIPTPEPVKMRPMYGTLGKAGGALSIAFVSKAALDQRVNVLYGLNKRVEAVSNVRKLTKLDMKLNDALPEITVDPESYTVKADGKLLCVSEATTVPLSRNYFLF

Butyrylcholinesterase, sequence (P06276 29-602): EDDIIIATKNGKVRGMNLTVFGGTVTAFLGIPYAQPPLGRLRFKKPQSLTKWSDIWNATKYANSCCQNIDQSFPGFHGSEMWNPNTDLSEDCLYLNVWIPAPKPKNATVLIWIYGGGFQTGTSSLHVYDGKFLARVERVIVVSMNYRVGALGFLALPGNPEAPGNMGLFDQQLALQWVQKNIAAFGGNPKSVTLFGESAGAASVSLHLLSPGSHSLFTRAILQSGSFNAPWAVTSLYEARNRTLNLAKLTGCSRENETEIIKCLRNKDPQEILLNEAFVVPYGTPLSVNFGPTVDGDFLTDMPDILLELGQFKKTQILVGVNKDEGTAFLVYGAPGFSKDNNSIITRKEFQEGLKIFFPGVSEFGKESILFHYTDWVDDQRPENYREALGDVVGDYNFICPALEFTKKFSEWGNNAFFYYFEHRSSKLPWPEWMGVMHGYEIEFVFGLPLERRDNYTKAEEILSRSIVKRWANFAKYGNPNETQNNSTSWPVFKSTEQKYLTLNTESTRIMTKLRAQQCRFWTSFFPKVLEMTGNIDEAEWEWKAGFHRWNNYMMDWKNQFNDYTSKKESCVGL

SMILES | Inhibition of BChE polymer used to wipe paraoxon-containing beakers (Butyrylcholinesterase) | Color change of urease/m-cresol purple polymer disks (Urease)
CCOP(=O)(OCC)Oc1ccc([N+](=O)[O-])cc1 [paraoxon, Paraoxon] | complete inhibition | –
NC(N)=O [urea] | – | transition from yellow to blue
